Source: publication PMC10892429, “Design, Synthesis, and Antitumor Evaluation of an Opioid Growth Factor Bioconjugate Targeting Pancreatic Ductal Adenocarcinoma” (Pharmaceutics, 2024)

Columns and labels:
[1] = system: HEK-293 human embryonic kidney cells; test: MTT viability assay, HEK-293
Protocol: (§1) The MIA PaCa-2 and AsPC-1 pancreatic cancer cell lines were obtained from the American Type Culture Collection (ATCC; Manassas, VA, USA). MIA PaCa-2, a human pancreatic cancer cell line, was isolated from the pancreatic duct (ATCC, CRL-1420) and cultured in Dulbecco’s Modified Eagle’s Medium (DMEM), supplemented with 10% FBS, 2.5% horse serum, and 1% penicillin/streptomycin (P/S). AsPC-1, a human metastatic pancreatic tumor cell line (ATCC, CRL-1682), was cultured in Roswell Park Memorial Institute 1640 Medium, supplemented with 10% FBS and 1% P/S. HDFa, a human primary dermal fibroblast was obtained from the American Type Culture Collection (ATCC; Manassas, VA, USA). The HDFa was cultured in DMEM and supplemented with 10% FBS and 1% P/S. HEK-293 immortalized human embryonic kidney was obtained courtesy of Professor Ewa Augustin from the Gdansk University of Technology. The HEK-293 was cultured in DMEM, and supplemented with 10% FBS and 1% P/S. Cells were cultured at 37 °C in a humidified atmosphere with 5% CO2. The cells were maintained in a 75 cm^2 tissue culture flask. The medium was replaced every two days. […]
(§2) In a 96-well plate, 7 × 10^3 MIA PaCa-2 and AsPC-1 cells and 3 × 10^3 HEK-293 and 10^4 HDFa cells were seeded per well. […] Cell viability was assessed using the MTT assay. […]

[2] = system: HDFa human primary dermal fibroblasts; test: MTT viability assay, HDFa
Protocol: as §1, §2

MIA PaCa-2 cells = test: Cell senescence (flow cytometry and optical microscopy), MIA PaCa-2; format: cell-based, human; conditions: MIA PaCa-2, 72 h; OGF-Gem increasing concentrations (3.125–100 nM), OGF 100 nM, Gem 100 nM
Protocol: In a 6-well plate, 1.7 × 10^5 MIA PaCa-2 and AsPC-1 cells were seeded per well. […] After incubation, the floating and attached cells were collected using a 1% BSA solution and fixed with 2% paraformaldehyde in PBS for 10 min at room temperature. The cells were washed with 1% BSA solution and incubated with the Senescence Detection Kit for 1.5 h at 37 °C without CO2, protected from light. Next, cell senescence was measured via flow cytometry (λex 490 nm; λem 514 nm). Ten thousand events were measured per sample. The data were expressed as a percentage of untreated cells (set to 100%), which were the control.
In a 12-well plate, 10^5 PaCa-2 and AsPC-1 cells were seeded per well. […] The medium was removed from each well and washed with a PBS (pH 7.2) buffer. The cells were incubated with fixative solution (0.2% glutaraldehyde, 2% paraformaldehyde, and a PBS buffer) for 5 min at room temperature. The cells were washed with a PBS (pH 6.0) buffer. Next, the cells were incubated with a staining solution (1 mg/mL X-Gal/DMF, 5 mM K3Fe(CN)6, 5 mM K4Fe(CN)6, 2 mM MgCl2, 150 mM NaCl, and 40 mM citric acid/buffer Na2HPO4) for 16 h at 37 °C, without CO2. After incubation, the cells were observed using an optical microscope (magnification 20x).

[3] = system: AsPC-1-induced platelet aggregation (washed platelets); test: Tumor cell-induced platelet aggregation (TCIPA), light aggregometry and TEM; format: cell-based, human; conditions: 50, 100 μM (any tested concentration), 10 min pre-incubation with washed platelets, AsPC-1 2 × 10^5/mL
Protocol: The MIA PaCa-2 and AsPC-1 cell cultures were washed and detached with 7 mM EDTA buffer. Next, the buffer was aspirated, and cells were centrifuged for 5 min at 1200 rpm and resuspended in Tyrod buffer. For TCIPA determination, MIA PaCa-2 cells were prepared at different concentrations: 10^5, 2 × 10^5, 5 × 10^5, 10^6 cells/mL; and AsPC-1 cells at concentrations of 5 × 10^4, 10^5, 2 × 10^5 cells/mL [31, 32, 33].
Samples collected after the TCIPA determination using the light aggregometer were fixed in 2.5% glutaraldehyde. The samples were then stained with 1% OsO4, gradually dehydrated with ethanol solution (30–100%), and embedded in EPON solution. Slides were prepared using a Leica UC7 ultramicrotome and stained with Uranyless and Reynolds lead citrate. Preparations were analyzed using a Tecnai G2 Spirit BioTWIN TEM [31].

washed platelets [4] = test: Platelet aggregation by compounds alone, light aggregometry; conditions: tested concentration
washed platelets [5] = test: LDH release assay on washed platelets; format: cell-based, human; conditions: 50 and 100 μM, 15 min at 37 °C, fluorescence
Protocol: The isolated WP (prepared as described in Section 2.12) were transferred to a 96-well plate for fluorescence measurements. Next, the OGF-Gm conjugate and the OGF at 50 and 100 μM concentrations were added. The control sample consisted of platelets suspended in Tyrod buffer. The positive control was WP treated with lysis buffer (0.1% Triton X-100) and the lysis buffered-WPs were set to 100%. Platelets with tested compounds were incubated for 15 min at 37 °C. Then, 100 μL of the LDH assay was added to each well and incubated for another 10 min, protected from light. The reaction was stopped with a Stop Solution buffer. Fluorescence intensity was measured with a plate reader (λex 560 nm; λem 590 nm). The results were expressed as the percentage of the total LDH release.

[6] = Stability in DMEM supplemented with 10% FBS; format: in vitro ADME; conditions: DMEM + 10% FBS
Protocol: The OGF-Gem conjugate and OGF alone were incubated in a medium (DMEM) supplemented with 10% FBS at a temperature of 37 °C. The initial concentrations of the peptide and conjugate solutions were both 0.5 mM. Samples of 60 μL were taken immediately after the start of incubation, 30 min, 90 min, 180 min, and 23 h and mixed with 60 μL of acetonitrile to separate the proteins. The formed precipitate was removed via centrifugation for 15 min at 13,000 rpm. The supernatant was analyzed via RP-HPLC [(Shimadzu Prominence, Duisburg, Germany) linear gradient 10–90% phase B, 20 min., column Kinetex 5 μm XB-C18 100Å 150 × 4.6 mm] and MALDI-MS (Autoflex maX MALDI-TOF spectrometer, Bruker Daltonics, Bremen, Germany) using a 2,5-dihydroxybenzoic acid matrix (DHB). A stability analysis was performed according to a protocol previously described by us.

[7] = system: AsPC-1 metastatic pancreatic cancer cells; test: MTT cytotoxicity assay, AsPC-1; format: cell-based, human; conditions: AsPC-1, 72 h
Protocol: The medium was replaced every two days.
Cell viability was assessed using the MTT assay.

[8] = all tested concentrations (1.56–100 nM), 3 days

For `Nc1ccn([C@@H]2O[C@H](CO)[C@@H](O)C2(F)F)c(=O)n1` [Gem, gemcitabine], the “reduction in HEK-293 cell viability” value ([1]; 100 nM, 72 h, compared to the 100 nM OGF-Gem derivative) was 80%, the HDFa cell viability ([2]; 100 nM, 72 h, % of control) was 35% and the “induction of cell senescence” value (MIA PaCa-2 cells) was “induced”. The “inhibition of TCIPA” value [3] was “did not inhibit” and the “effect on platelet aggregation (compound alone)” value (from here on “effect on platelet aggregation”) (washed platelets [4]) was “do not affect platelet aggregation”.
With `CSCC[C@H](NC(=O)[C@H](Cc1ccccc1)NC(=O)CNC(=O)CNC(=O)[C@@H](N)Cc1ccc(O)cc1)C(=O)O` [OGF, [Met^5]-enkephalin, reference compound] the “LDH release from platelets” value (washed platelets [5]) was “did not result in significant releases of LDH”, the “concentration after 23 h compared to the initial state” value ([6]; 37 °C, 0.5 mM, 23 h, RP-HPLC) was “lower” and the “presence of intact compound after 23 h (HPLC)” value ([6]; 37 °C, 0.5 mM, 23 h, RP-HPLC) was “still present”. For the same compound, the “effect on platelet aggregation” value (washed platelets [4]) was “do not affect platelet aggregation”.
In the case of `CSCC[C@H](NC(=O)[C@H](Cc1ccccc1)NC(=O)CNC(=O)CNC(=O)[C@H](Cc1ccc(O)cc1)NC(=O)CCC(=O)OC[C@H]1O[C@@H](n2ccc(N)nc2=O)C(F)(F)[C@@H]1O)C(=O)O` [OGF-Gem], the “cytotoxic effect compared to the commonly used chemotherapeutic agent (Gem)” value [7] was “more pronounced cytotoxic effect”, the “cytotoxicity to HEK-293” value [1, 8] was “slight cytotoxicity effect” and the “cytotoxicity to HDFa” value [2, 8] was “slight cytotoxicity effect”. The “LDH release from platelets” value (washed platelets [5]) was “did not result in significant releases of LDH”, the “presence of intact compound after 23 h (MS)” value ([6]; 37 °C, 0.5 mM, 23 h, MALDI-MS) was “not confirmed” and the “presence of intact compound after 23 h (HPLC)” value ([6]; 37 °C, 0.5 mM, 23 h, RP-HPLC) was “confirmed”. The “presence of intact compound after 3 days (HPLC)” value ([6]; 3 days at room temperature, RP-HPLC) was “confirmed”, the “release of parent drug during incubation” value ([6]; HPLC and MS) was “gradual release of free Gem” and the remaining at 23 h, 0.5 mM ([6]; DMEM supplemented with 10% FBS, 37 °C, 0.5 mM, 23 h, RP-HPLC, read-out: HPLC peak area of intact conjugate after 23 h relative to area just after start of incubation) was roughly 39%. The “effect on platelet aggregation” value (washed platelets [4]) was “do not affect platelet aggregation”.
